In patent US11725000B2, “Apoptosis inhibitors” (National Institute of Biological Sciences, Beijing, priority 2017, dated 2023):
Read-outs that look alike come from different tables or passages of the source.

Test system: U2OS_Bim cells
Experiment: Apoptosis inhibition assay (Bim-induced apoptosis, cell viability by ATP level)
Assay type: cell-based
Procedure: A chemical library containing 200000 compounds was screened according to the following procedure: U2OS_Bim cells (a cell line in which the BH3-only protein Bim can be inducibly expressed by the addition of Doxycycline to the growth medium)^[2] were plated in 384-well plates with 30 μl medium at a density of 500 cells per well. 16 hrs after plating, test compounds were transferred from stock plates to the assay plates with the cultured cells. Positive control (20 μM zVAD) and negative control (DMSO) were added to every plate. 1 hr after compound treatment, 0.1 ug/mL Doxycyclin (DOX) was added to induce the expression of the Bim protein. After 24 hrs, cell viability was determined by measuring the ATP levels using a Cell Titer-Glo kit (Promega, G7570) according to the manufacturer's instructions. Luminescence was recorded with a PerkinElmer EnSpire Multimode Plate Reader. Compounds that could rescue cell viability to a level above 50% were selected; these compounds were then screened a second time for assurance.
U2OS_Bim or U2OS_tBid cells were plated at a density of 3000 cells per well in 96-well plates. 24 hrs later, cells were treated with experimental compounds, zVAD (positive control) and DMSO (Negative control) for one hour. The cells were then treated with 0.1 μg/mL DOX to trigger apoptosis. 24 hours after the addition of DOX, cell viability was determined by measuring the ATP levels using a Cell Titer-Glo kit. Cell survival rate was calculated.
U2OS_Bim cells (a U2OS stable cell line transfected with a Bim transgene) were cultured in DMEM culture medium (Gibico). On day one, U2OS_Bim cells were plated in 96-well plates at a density of 3000 cells per well. On day two, cells were pretreated with compounds for one hour. Then cells were treated with 0.1 μg/mL doxycycline (DOX) to trigger apoptosis. 24 hours after DOX treatment, cell viability was determined by measuring the ATP levels using the Cell Titer-Glo kit (G7570, Promega), according to the manufacturer's instructions. Luminescence was recorded with a PerkinElmer EnSpire Multimode Plate Reader. Survived cells were normalized to those cells treated with DMSO. zVAD (20 μM) was used as a positive control. Activity data for compounds […] are represented as means f standard deviation of duplicates; activity data for compounds 187-274 are estimated based on preliminary results.

[1] = U2OS_Bim cells, means of duplicates, numbering of Tables 4a/4b, read-out: EC50

Row | EC50 [1] | Compound | EC50
1 | < 100 µM | C#CCOc1cccc(-c2cc(C(F)(F)F)nc(S(C)(=O)=O)n2)c1 [Compound 71, 2-(methylsulfonyl)-4-(3-(prop-2-yn-1-yloxy)phenyl)-6-(trifluoromethyl) pyrimidine] | 
2 | 1 to 10 µM | C#CCOc1cccc(-c2cc(C(F)(F)F)nc([S+](C)[O-])n2)c1 (centres unmarked) [Compound 72, 2-(methylsulfinyl)-4-(3-(prop-2-yn-1-yloxy)phenyl)-6-(trifluoromethyl) pyrimidine] | 
3 | 1 to 10 µM | CS(=O)(=O)c1nc(-c2cccc(Oc3ccccc3)c2)cc(C(F)(F)F)n1 [Compound 73, 2-(methylsulfonyl)-4-(3-phenoxyphenyl)-6-(trifluoromethyl)pyrimidine] | 
4 | < 100 µM | C[S+]([O-])c1nc(-c2cccc(Oc3ccccc3)c2)cc(C(F)(F)F)n1 (centres unmarked) [Compound 74, 2-(methylsulfinyl)-4-(3-phenoxyphenyl)-6-(trifluoromethyl)pyrimidine] | 
5 |  | CS(=O)(=O)c1nc(-c2cccc(OCc3ccccc3)c2)cc(C(F)(F)F)n1 [Compound 75, 4-(3-(benzyloxy)phenyl)-2-(methylsulfonyl)-6-(trifluoromethyl)pyrimidine] | 1 to 20 µM
6 | 1 to 20 µM | CS(=O)(=O)c1nc(-c2cccc3ccccc23)cc(C(F)(F)F)n1 [Compound 76, 2-(methylsulfonyl)-4-(naphthalen-1-yl)-6-(trifluoromethyl)pyrimidine] | 
7 | < 100 µM | C[S+]([O-])c1nc(-c2cccc3ccccc23)cc(C(F)(F)F)n1 (centres unmarked) [Compound 77, 2-(methylsulfinyl)-4-(naphthalen-1-yl)-6-(trifluoromethyl)pyrimidine] | 
8 | < 100 µM | COc1ncccc1-c1cc(C(F)(F)F)nc(S(C)(=O)=O)n1 [Compound 78, 4-(2-methoxypyridin-3-yl)-2-(methylsulfonyl)-6-(trifluoromethyl)pyrimidine] | 
9 | < 100 µM | COc1ncccc1-c1cc(C(F)(F)F)nc([S+](C)[O-])n1 (centres unmarked) [Compound 79, 4-(2-Methoxypyridin-3-yl)-2-(methylsulfinyl)-6-(trifluoromethyl)pyrimidine] | 
10 | < 100 µM | CS(=O)(=O)c1nc(-c2ccc[nH]c2=O)cc(C(F)(F)F)n1 [Compound 80, 3-(2-(methylsulfonyl)-6-(trifluoromethyl)pyrimidin-4-yl)pyridin-2 (1H)-one] | 
11 | < 100 µM | C[S+]([O-])c1nc(-c2ccc[nH]c2=O)cc(C(F)(F)F)n1 (centres unmarked) [Compound 81, 3-(2-(methylsulfinyl)-6-(trifluoromethyl)pyrimidin-4-yl)pyridin-2 (1H)-one] | 
12 | < 100 µM | C[S+]([O-])c1nc(N2CCOCC2)cc(C(F)(F)F)n1 (centres unmarked) [Compound 82, 4-(2-(methylsulfinyl)-6-(trifluoromethyl)pyrimidin-4-yl)morpholine] | 
13 | 1 to 10 µM | CS(=O)(=O)c1nc(-n2cccn2)cc(C(F)(F)F)n1 [Compound 83, 2-(methylsulfonyl)-4-(1H-pyrazol-1-yl)-6-(trifluoromethyl)pyrimidine] | 
14 | 1 to 10 µM | CS(=O)(=O)c1nc(-c2ccc[nH]2)cc(C(F)(F)F)n1 [Compound 84, 2-(methylsulfonyl)-4-(1H-pyrrol-2-yl)-6-(trifluoromethyl)pyrimidine] | 
15 | 1 to 10 µM | COc1ccc(Cn2cccc2-c2cc(C(F)(F)F)nc(S(C)(=O)=O)n2)cc1OC [Compound 85, 4-(1-(3,4-dimethoxybenzyl)-1H-pyrrol-2-yl)-2-(methylsulfonyl)-6-(trifluoromethyl)pyrimidine] | 
16 | < 100 µM | COc1ccc(Cn2cccc2-c2cc(C(F)(F)F)nc([S+](C)[O-])n2)cc1OC (centres unmarked) [Compound 86, 4-(1-(3,4-dimethoxybenzyl)-1H-pyrrol-2-yl)-2-(methylsulfinyl)-6-(trifluoromethyl)pyrimidine] | 
17 | < 100 µM | CS(=O)(=O)c1nc(-c2cc[nH]c2)cc(C(F)(F)F)n1 [Compound 87, 2-(methylsulfonyl)-4-(1H-pyrrol-3-yl)-6-(trifluoromethyl)pyrimidine] | 
18 | < 100 µM | C[S+]([O-])c1nc(-c2cc[nH]c2)cc(C(F)(F)F)n1 (centres unmarked) [Compound 88, 2-(methylsulfinyl)-4-(1H-pyrrol-3-yl)-6-(trifluoromethyl)pyrimidine] | 

Row | EC50 [1] | Compound | EC50
19 | < 100 µM | COc1cccc(Cn2ccc(-c3cc(C(F)(F)F)nc(S(C)(=O)=O)n3)c2)c1 [Compound 89, 4-(1-(3-methoxybenzyl)-1H-pyrrol-3-yl)-2-(methylsulfonyl)-6-(trifluoromethyl)pyrimidine] | 
20 | < 100 µM | COc1cccc(Cn2ccc(-c3cc(C(F)(F)F)nc([S+](C)[O-])n3)c2)c1 (centres unmarked) [Compound 90, 4-(1-(3-methoxybenzyl)-1H-pyrrol-3-yl)-2-(methylsulfinyl)-6-(trifluoromethyl)pyrimidine] | 
21 | < 100 µM | COc1ccc(Cn2ccc(-c3cc(C(F)(F)F)nc(S(C)(=O)=O)n3)c2)cc1 [Compound 91, 4-(1-(4-methoxybenzyl)-1H-pyrrol-3-yl)-2-(methylsulfonyl)-6-(trifluoromethyl)pyrimidine] | 
22 | < 100 µM | COc1ccc(Cn2ccc(-c3cc(C(F)(F)F)nc([S+](C)[O-])n3)c2)cc1 (centres unmarked) [Compound 92, 4-(1-(4-methoxybenzyl)-1H-pyrrol-3-yl)-2-(methylsulfinyl)-6-(trifluoromethyl)pyrimidine] | 
23 | < 100 µM | CS(=O)(=O)c1nc(-c2ccn(Cc3cccc(Cl)c3)c2)cc(C(F)(F)F)n1 [Compound 93, 4-(1-(3-chlorobenzyl)-1H-pyrrol-3-yl)-2-(methylsulfonyl)-6-(trifluoromethyl)pyrimidine] | 
24 | < 100 µM | C[S+]([O-])c1nc(-c2ccn(Cc3cccc(Cl)c3)c2)cc(C(F)(F)F)n1 (centres unmarked) [Compound 94, 4-(1-(3-chlorobenzyl)-1H-pyrrol-3-yl)-2-(methylsulfinyl)-6-(trifluoromethyl)pyrimidine] | 
25 | < 100 µM | CS(=O)(=O)c1nc(-c2ccn(Cc3ccc(Cl)cc3)c2)cc(C(F)(F)F)n1 [Compound 95, 4-(1-(4-chlorobenzyl)-1H-pyrrol-3-yl)-2-(methylsulfonyl)-6-(trifluoromethyl)pyrimidine] | 
26 | < 100 µM | C[S+]([O-])c1nc(-c2ccn(Cc3ccc(Cl)cc3)c2)cc(C(F)(F)F)n1 (centres unmarked) [Compound 96, 4-(1-(4-chlorobenzyl)-1H-pyrrol-3-yl)-2-(methylsulfinyl)-6-(trifluoromethyl)pyrimidine] | 
27 | < 100 µM | CS(=O)(=O)c1nc(-c2ccn(Cc3cccc(C#N)c3)c2)cc(C(F)(F)F)n1 [Compound 97, 3-((3-(2-(methylsulfonyl)-6-(trifluoromethyl)pyrimidin-4-yl)-1H-pyrrol-1-yl)methyl)benzonitrile] | 
28 | < 100 µM | C[S+]([O-])c1nc(-c2ccn(Cc3cccc(C#N)c3)c2)cc(C(F)(F)F)n1 (centres unmarked) [Compound 98, 3-((3-(2-(methylsulfinyl)-6-(trifluoromethyl)pyrimidin-4-yl)-1H-pyrrol-1-yl)methyl)benzonitrile] | 
29 | < 100 µM | CS(=O)(=O)c1nc(-c2ccc(=O)[nH]c2)cc(C(F)(F)F)n1 [Compound 99, 5-(2-(methylsulfonyl)-6-(trifluoromethyl)pyrimidin-4-yl)pyridin-2 (1H)-one] | 
30 | 0.001 to 1 µM | C#CCn1cc(-c2cc(C(F)(F)F)nc(S(C)(=O)=O)n2)ccc1=O [Compound 100, 5-(2-(methylsulfonyl)-6-(trifluoromethyl)pyrimidin-4-yl)-1-(prop-2-yn-1-yl) pyridin-2 (1H)-one] | 
31 | 1 to 10 µM | C#CCn1cc(-c2cc(C(F)(F)F)nc([S+](C)[O-])n2)ccc1=O (centres unmarked) [Compound 101, 5-(2-(methylsulfinyl)-6-(trifluoromethyl)pyrimidin-4-yl)-1-(prop-2-yn-1-yl) pyridin-2 (1H)-one] | 
32 | 1 to 10 µM | CS(=O)(=O)c1nc(-c2ccc(=O)n(CCN=[N+]=[N-])c2)cc(C(F)(F)F)n1 [Compound 102, 1-(2-azidoethyl)-5-(2-(methylsulfonyl)-6-(trifluoromethyl)pyrimidin-4-yl) pyridin-2 (1H)-one] | 
33 |  | CS(=O)(=O)c1nc(-c2ccc(=O)n(Cc3ccccc3)c2)cc(C(F)(F)F)n1 [Compound 103, 1-Benzyl-5-(2-(methylsulfonyl)-6-(trifluoromethyl)pyrimidin-4-yl)pyridin-2 (1H)-one] | 1 to 10 µM
34 | 0.001 to 1 µM | CS(=O)(=O)c1nc(-c2ccc(=O)n(Cc3ccccc3Cl)c2)cc(C(F)(F)F)n1 [Compound 104, 1-(2-chlorobenzyl)-5-(2-(methylsulfonyl)-6-(trifluoromethyl)pyrimidin-4-yl)pyridin-2 (1H)-one] | 
35 | 0.001 to 1 µM | CS(=O)(=O)c1nc(-c2ccc(=O)n(Cc3cccc(Cl)c3)c2)cc(C(F)(F)F)n1 [Compound 105, 1-(3-chlorobenzyl)-5-(2-(methylsulfonyl)-6-(trifluoromethyl)pyrimidin-4-yl)pyridin-2 (1H)-one] | 
